# Data from PMC13294250, “An effort to enhance the clinical translatability of caprate-based tablet formulations in gastric peptide delivery” (Drug Delivery and Translational Research, 2025).
# Where two headings read alike, the source gives them in different places.
# Assays:
# [1] = CAC and CMC determinations by dynamic light scattering; assay type: physicochemical; conditions: DLS at 25 °C
# Procedure: Stock solutions of sodium caprate were made in the individual buffers. 10–100 mM phosphate buffer was used for most sample series, while 50 mM sodium borate was used for pH 9 [31]. In the case of meglumine a 20 mM Tris buffer pH 8.5 was used. Samples were prepared with and without 20 mg/ml meglumine. All samples were pH adjusted and filtered through 0.22 μm (Millipore 6830-0021). Dynamic light scattering (DLS) data was acquired at 25 °C by adding 20–25 µL of each sample in triplicates to a 384 well plate Corning® 3540 (Corning, NY, USA). The plate was centrifuged for 5 min at 1200 rpm before analysis to remove any air bubbles from the wells. […] A DynaPro™ Plate Reader and Dynamics™ software version 7 (Wyatt Technology Corp., Santa Barbara, CA, USA) was used to collect and analyze the data.
# [2] = cited from earlier work
# Text: Given the negative impact of low gastric pH on both in vitro and in vivo performance of C10-based tablets, the use of a pH modifier was investigated to mitigate the acidity of the human stomach. Since C10 is an ionizable compound known to form different colloidal structures dependant on pH, selection of an appropriate pH modifier is paramount. The resulting pH should enable fast disintegration and dissolution of the formulation, whilst securing that the colloidal species formed facilitate the permeation enhancing effect needed for absorption of the macromolecule. Monomeric C10 is presumed to b ...
# [3] = sodium carbonate as pH modifier candidate in C10 tablets, oral
# Procedure: On top of elevating the pH, the pH-modifying excipient needs to ensure manufacturability of tablets while being compatible with the API in the formulation. An array of alkaline agents capable of increasing the pH were screened (Figure S2) by addition of the pH modifier in 20 mL of acidic media (0.1 M HCl) with 0.1 M KCl, and 10 mg/mL of C10 at 37 °C, which is close to the physiological condition of experimental animals when C10 tablet formulation is dosed. The volume and concentration of HCl and KCl were selected to replicate the gastric in vivo conditions, whereas C10 was added to mimic the intrinsic buffer capacity of the PE present in the tablet.
# [4] = no reference given; cited from earlier work
# Text: Meglumine was selected due to its capability to both raise the pH to the desired level and produce tablets with the required quality. […] In addition, it is an approved pharmaceutical excipient marketed in several oral dosage forms such as telmisartan, repaglinide and rosuvastatine tablets. To identify the most suitable meglumine amount for C10-based tablets, a systematic screening ...
# [5] = Screening of the meglumine amount in acidic medium containing C10; assay type: physicochemical; conditions: 37 °C, pH meter
# Procedure: In addition, it is an approved pharmaceutical excipient marketed in several oral dosage forms such as telmisartan, repaglinide and rosuvastatine tablets. To identify the most suitable meglumine amount for C10-based tablets, a systematic screening was conducted in 20 mL acidic medium (KCl 0.1 M/ HCl 0.025 M, 10 mL + 10 mL of MQ water) reflecting the composition of dog gastric fluid after dosing of water. The medium contained either 50, 100, 200, or 300 mg of C10 to account for different enhancer amounts, and the evolution of pH against added meglumine amount was monitored (Table 1). Since a final pH above 8.5 around the tablet in the stomach is desirable for C10 dissolution and to achieve the single-phased micellar system with high monomeric C10 availability, the corresponding meglumine amount needed to reach pH 8.5 was set as the lower limit for formulation development.
# A stock solution of KCl 0.1 M/ HCl 0.025 M, pH = 1.6 was prepared. 10mL of this solution was added to 10 mL of MQ water in tubes containing either 50, 100, 200, or 300 mg of C10 granules. Each solution was gently stirred at 37 °C. Meglumine was added in amounts beyond the calculated neutralization point. pH was recorded using a pH meter PHM 200 (Mettler Toledo). Turbidity/clarity was visually assessed for records.
# [6] = 50 mg C10 / 20 mL acidic medium (10 mL KCl 0.1 M/HCl 0.025 M pH 1.6 + 10 mL MQ water)
# [7] = 200 mg C10 / 20 mL acidic medium (10 mL KCl 0.1 M/HCl 0.025 M pH 1.6 + 10 mL MQ water)
# [8] = 300 mg C10 / 20 mL acidic medium (10 mL KCl 0.1 M/HCl 0.025 M pH 1.6 + 10 mL MQ water)
smiles,measurement,setting,value
"CCCCCCCCCC(=O)[O-].[Na+] [Formulation C10, Sodium caprate]",critical aggregate concentration (CAC) of C10 vesicles,"[1]; pH lower than approximately 8.5, phosphate buffer, triplicates",around 15 mM
same,critical micelle concentration (CMC),[2]; pH 9.1,81 mM
same,critical micelle concentration (CMC),[2]; pH 11.8,102 mM
O=C([O-])[O-].[Na+].[Na+] [Sodium carbonate],adverse events in dogs,[3],vomiting
"CNC[C@H](O)[C@@H](O)[C@H](O)[C@H](O)CO [meglumine, Meglumine]",impact of meglumine on the CMC of C10 (in words),"[1]; 20 mM Tris buffer pH 8.5, with and without 20 mg/ml meglumine",did not show any impact
same,pKa,[4],9.6
same,Amount of meglumine (mg) to pH 8.5,[5]; [6],15 mg
same,Amount of meglumine (mg) to pH 9.5,[5]; [6],25 mg
same,Amount of meglumine (mg) to pH 9.5,[5]; 100 mg C10 / 20 mL acidic medium (10 mL KCl 0.1 M/HCl 0.025 M pH 1.6 + 10 mL MQ water),60 mg
same,Amount of meglumine (mg) to pH 8.5,[5]; [7],60 mg
same,Amount of meglumine (mg) to pH 9.5,[5]; [7],100 mg
same,Amount of meglumine (mg) to pH 8.5,[5]; [8],90 mg
same,Amount of meglumine (mg) to pH 9.5,[5]; [8],125 mg
